Source: patent publication US6884577B2, “Methods for screening compounds for estrogenic activity” (The Regents of the University of California, priority 1993, dated 2005)

Columns and labels:
[1] = test system: human ER at the AP-1 site (collagenase promoter, AP-1-tk), HeLa cells; assay: CAT assays of HeLa cells transfected with AP-1 site reporter genes and human ER expression vector; format: cell-based; settings: transiently expressed human ER, FIG. 2A
Experimental: Representations, at left, show the human collagenase promoter (shaded) and the consensus AP-1 site. […] CAT activity is normalized to a transfection control with the actin promoter driving expression of βHCG. Single representative experiments are shown, error bars represent standard deviation of triplicate hormone treatments.
Cells were maintained and transfected as previously described in Webb et al., supra. […] F9 cells were seeded at 30% confluence upon 1.5 cm dishes and transfected overnight by calcium phosphate coprecipitation with 5 μg reporter gene, 1 μg actin β-HCG, and 1 μg of HEO, 300 ng each of c-jun and c-fos expression vectors. The cells were glycerol shocked and refed in growth medium containing hormone or ethanolic vehicle.
CAT assays were carried out as described in Webb et al., except that the cells were harvested one to two days after transfection instead of three. CAT activities were defined as the increase in cpm per hour at room temperature (corrected for background) per 100 μl of cell extract, normalized to production of 100 standard units of βHCG, from a co-transfected reporter gene, actin-HCG. […] Light units were defined as the luciferase activity per 100 μl of cell extract per 100 standard units of βHCG. Relative luciferase activities were calculated with respect to the results that were obtained in the absence of ER and hormone, which was set at 1 unit. For the data presented in Table I triplicate points were determined.
To further examine the effects of antiestrogens on the AP-1 directed pathway, reporter genes derived from the human collagenase promoter were transfected into HeLa cells.

ER at classical ERE = assay: Reporter genes containing classical EREs (ERE-coll60, ERE-tk) in cells with ER; format: cell-based, human
Experimental: FIGS. 2A-2C show antiestrogen stimulation of expression in an intact AP-1 Site, but not at classical EREs. […] Representations, at left, show the human collagenase promoter (shaded) and the consensus AP-1 site. CAT activities were from cells maintained in the absence of hormone or saturating concentrations of ICI 164,384 (ICI, 1 μM), tamoxifen (5 μM) or estradiol ([…]). CAT activity is normalized to a transfection control with the actin promoter driving expression of βHCG. Single representative experiments are shown, error bars represent standard deviation of triplicate hormone treatments.
All reporter genes described below have been modified by digestion with EcoR I and Ndel to remove a AP-I site in the backbone of pUG. Thus, Coll73 and Coll60 are formerly_Coll73 and_Coll60 (Lopez et al. Mol. Cell. Biol. 13:3042-930 (1993)). Coll73-LUC was constructed by cloning a BamHI/Pvull fragment, that spanned the luciferase transcription unit, from pMG3 into coll73, which had been digested with BamHI and SmaI to remove the CAT transcription unit. EREcoll60 and EREcoll73 was prepared by ligation of a consensus ERE ([…], SEQ ID NO:3), into the HindIII site upstream of coll60 and coll73, respectively. All other reporter genes have been previously described (Webb et al. Mol. Endocrinol. 6:157-16725 (1992): and Lopez et al., supra).
Cells were maintained and transfected as previously described in Webb et al., supra. Hormones were added two hours after plating in the following concentrations, estradiol 100 nM, ICI 164,384 1 μM, tamoxifen 5 μM, to ensure saturation of the response. F9 cells were seeded at 30% confluence upon 1.5 cm dishes and transfected overnight by calcium phosphate coprecipitation with 5 μg reporter gene, 1 μg actin β-HCG, and 1 μg of HEO, 300 ng each of c-jun and c-fos expression vectors. The cells were glycerol shocked and refed in growth medium containing hormone or ethanolic vehicle. In transient transfections, optimal amounts of HEO were employed and were as follows: HeLa (5 μg); NIH3T3 (1 μg); HepG2 (1 μg); SHM (300 ng); SY5Y (300 ng); CEF (100 ng); CV-1 (3 μg); MDA453 (3 μg); CHO (100 ng) and F9 (1 μg).
CAT assays were carried out as described in Webb et al., except that the cells were harvested one to two days after transfection instead of three. CAT activities were defined as the increase in cpm per hour at room temperature (corrected for background) per 100 μl of cell extract, normalized to production of 100 standard units of βHCG, from a co-transfected reporter gene, actin-HCG. Luciferase assays were performed as described by Brasier et al. Methods Enzymol 216:386-97 (1992)) on similar extracts that were used for CAT assays. Light units were defined as the luciferase activity per 100 μl of cell extract per 100 standard units of βHCG. Relative luciferase activities were calculated with respect to the results that were obtained in the absence of ER and hormone, which was set at 1 unit. For the data presented in Table I triplicate points were determined. Standard deviations were less than 20%.
The activity of antiestrogens in the AP-1 pathway was also compared with their activity in the classical pathway. […] A promoter with both an ERE and an AP-1 site (ERE-coll73 FIG. 2C) gave a large estrogen response, but retained some response to antiestrogens. Another control reporter, in which the tk promoter was regulated by a classical ERE (ERE-tk FIG. 2C) was also activated by estrogen, but not by antiestrogens.

[2] = test system: ER at the AP-1 site of the collagenase promoter; assay: Collagenase promoter reporter in cells that express endogenous ER (Ishikawa, MCF-7, ZR-75-1); format: cell-based
Experimental: Left panel, coll73-CAT response with endogenous ER contrasted with the response of an ERE regulated reporter, ERE-coll60CAT. Right panel, coll73-LUC response with 3 μg co-transfected expression vector for human ER. Averages of three individual experiments are shown. […] A single representative experiment with triplicate hormone treatments is shown.
(§1) To further explore this phenomenon, and to test whether similar hormone effects could be detected at physiological levels of ER, the expression of the collagenase promoter in cells that express endogenous ER was examined.

[3] = test system: ER at the AP1 site of the collagenase promoter, F9 cells; assay: Δcoll73 CAT reporter in F9 cells with transiently transfected ER; format: cell-based, human; settings: no c-Jun/c-fos, FIG. 1B
Excerpt: Cells were maintained and transfected as previously described in Webb et al., supra. […] […] The cells were glycerol shocked and refed in growth medium containing hormone or ethanolic vehicle.

[4] = test system: ER at classical ERE, Ishikawa cells; assay: ERE-coll60CAT reporter in Ishikawa cells; format: cell-based
Excerpt: Left panel, coll73-CAT response with endogenous ER contrasted with the response of an ERE regulated reporter, ERE-coll60CAT. […] Averages of three individual experiments are shown. […] A single representative experiment with triplicate hormone treatments is shown.
as §1

C[C@]12CC[C@@H]3c4ccc(O)cc4CC[C@H]3[C@@H]1CC[C@@H]2O [estradiol, 17β-estradiol] was tested, and the “activation of the collagenase promoter (coll517, coll73)” value [1] was “activated”, the “estrogen response of EREΔcoll60 (classical ERE substituted for AP1 site)” value (ER at classical ERE; ERC1 cells) was “restored estrogen response” and the “activation of ERE-tk” value (ER at classical ERE; HeLa cells, FIG. 2C) was “activated”. For the same compound, the “activation of the collagenase promoter (coll73-CAT)” value ([2]; Ishikawa cells, endogenous receptor, FIG. 4A) was “activated”, the “induction of the collagenase promoter (coll73-LUC)” value ([2]; Ishikawa cells, receptor levels raised by transfection) was “inductions became larger” and the “activation of the collagenase promoter” value ([2]; MCF-7 cells, endogenous ER, FIG. 4B) was “activated”. The “activation of the collagenase promoter” value ([2]; ZR-75-1 cells) was “The same pattern occurred”, the “estrogen response of Δcoll73” value [3] was “failed to respond” and the “expression of ERE-coll60” value [4] was “tenfold”.
